Test system: PDC 899932-113-R3-J6 complex spheroid viability
Experiment: Anticancer human tumor 899932-113-R3-J6-PDC patient-derived melanoma cell line growth inhibition [RAS]
Details: for IC50: curve of first compound; for viability, T/C: stronger effect = lower value; active = viability on the fitted dose curve at most 10% of control; inactive = the rest
Text: RAS pathway inhibitors in Combinations in Complex Spheroids
A high-throughput screen of multi-cell type tumor spheroids was designed to identify active combinations of RAS pathway inhibitors and targeted small molecules. Complex spheroids include a stromal component modeled by human endothelial cells (HUVEC) and fibroblasts modeled by human mesenchymal stem cells (MSCs). The concentration ranges selected for each drug and investigational agent were based upon clinically achievable concentrations if the clinical Cmax of the agent was known.
Compounds. The drugs and investigational agents: abemaciclib (NSC768073), cobimetinib (NSC768068), divarasib (GDC6063, NSC841802), docetaxel (NSC628503), GDC-1971 (RLY-1971, NSC841576), gemcitabine (NSC613327), inavolisib (NSC800729), ipatasertib (NSC767898), KB-0742 (NSC834161), MRTX-1133 (NSC836407), osimertinib (NSC779217), RMC-4630 (NSC839698), RMC-6236 (NSC851965), RMC-6291 (NSC852671), Ro-3306 (NSC812927), sapanisertib (NSC764658), SN-38 (NSC673596), staurosporine (NSC755774), SY5609 (NSC837396), and tovorafenib (DAY101, NSC766906), were obtained from the National Cancer Institute (NCI) Developmental Therapeutics Program Chemical Repository. The FDA-approved anticancer drug set is available from the NCI Developmental Therapeutics Program. […] The stock solutions were prepared in dimethyl sulfoxide (DMSO, Sigma-Aldrich, St. Louis, MO, cat. D2650) at 800-fold the tested concentration and stored at -70 degrees C prior to their use. All drugs and investigational agents were tested over a range starting from a high concentration at or near the clinical Cmax and decreasing in half-log increments. If the clinical Cmax for an agent had not been determined, the highest concentration tested was 10 microM.
Cell Culture. All cells were maintained in an incubator at 37 degrees C and 5% CO2 with 95% humidity. The PDC lines were cultured according to standard operating procedures established by the NCI PDMR. All PDCs were thawed and cultured in Matrigel-coated flasks prepared with a working solution of 1X Ham's F-12 nutrient mix, without supplementation (Invitrogen, Waltham, MA, cat. 11765054), 100 U/mL penicillin-streptomycin (Invitrogen, cat. 15140122), and 2.5% Matrigel (Corning Inc., Corning, NY, cat. 354248) for the first three passages. The 362531-283-R-J2-PDC and 782815-120-R-J1-PDC lines were cultured in 6C/Colon 1B media, which includes advanced DMEM/F-12 (Thermo Fisher Scientific, cat. 12634028), 10 mM HEPES (Thermo Fisher Scientific, cat. 15630080), 1X GlutaMAX supplement (Thermo Fisher Scientific, cat. 35050061), 0.1 mg/mL primocin (InvivoGen, San Diego, CA, cat. ant-pm-2), 10% defined fetal bovine serum, heat inactivated (HyClone Laboratories Inc., Logan, UT, cat. SH30070.03HI), 50% L-WRN conditioned media (ATCC, cat. CRL-3276), 1.25 mM N-Acetyl-L-cysteine (Sigma-Aldrich, cat. A9165), 10 mM nicotinamide (Sigma-Aldrich, cat. N0636), 1X B-27 supplement (Thermo Fisher Scientific, cat. 17504044), 1X N-2 supplement (Thermo Fisher Scientific, cat. 17502048), 50 ng/mL human EGF (Thermo Fisher Scientific, cat. PHG0311), and 10 microM Y-27632 dihydrochloride (Tocris Bioscience, cat. 1254). The K12877-001-R-J1-PDC line was cultured in 6I media, which includes all 6C/Colon 1B media plus 10 ng/mL human FGF-10 (PeproTech, cat. 100-26), 1 ng/mL human FGF-2 (PeproTech, cat. 100-18B), 1 µM prostaglandin E2 (Tocris Bioscience, cat. 2296), […] hydrocortisone (Sigma-Aldrich, cat. H4001), and […] bovine insulin (Sigma-Aldrich, cat. I6634). The K86415-001-R-J1-PDC line was cultured in 6D media, which includes all 6C/Colon 1B media components minus the L-WRN conditioned media. The 485176-168-R4-J1-PDC was cultured in PANC media, which includes all 6C/Colon 1B media plus 100 ng/mL human FGF-10 (PeproTech, cat. 100-26), 500 nM SB-431542 (Selleckchem, cat. S1067), and 10 nM gastrin (Tocris Bioscience, cat. 3006). […]
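Throughout, for viability, T/C: spheroids exposed to agents for seven days before readout; 100% = DMSO vehicle control wells.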

CC1(O)CCCC1n1c(=O)c(C(F)F)cc2cnc(NC3CCN(S(C)(=O)=O)CC3)nc21 (configuration not stated) + C#Cc1c(F)ccc2cc(O)cc(-c3ncc4c(N5CC6CCC(C5)N6)nc(OCC56CCCN5CC(F)C6)nc4c3F)c12
3.12 µM: IC50 (second compound 10 µM)
3.2 µM: IC50 (second compound 0.316 µM)
2.47 µM: IC50 (second compound 0.0316 µM)
2.57 µM: IC50 (second compound 0.1 µM)
inactive: viability, T/C (second compound 0.0316 µM, first compound 0.0316 µM) 105% | viability, T/C (second compound 0.0316 µM, first compound 0.1 µM) 81.1% | viability, T/C (second compound 0.0316 µM, first compound 0.316 µM) 70.8% | viability, T/C (second compound 0.0316 µM, first compound 1 µM) 69.9% | viability, T/C (second compound 0.0316 µM, first compound 3.16 µM) 54.9% | viability, T/C (second compound 0.0316 µM, first compound 10 µM) 21.6% | viability, T/C (second compound 0.1 µM, first compound 0.0316 µM) 96.2% | viability, T/C (second compound 0.1 µM, first compound 0.1 µM) 86.9% | viability, T/C (second compound 0.1 µM, first compound 0.316 µM) 63.6% | viability, T/C (second compound 0.1 µM, first compound 1 µM) 62.3% | viability, T/C (second compound 0.1 µM, first compound 3.16 µM) 62% | viability, T/C (second compound 0.1 µM, first compound 10 µM) 24.5% | viability, T/C (second compound 0.316 µM, first compound 0.0316 µM) 99.2% | viability, T/C (second compound 0.316 µM, first compound 0.1 µM) 93% | viability, T/C (second compound 0.316 µM, first compound 0.316 µM) 75.9% | viability, T/C (second compound 0.316 µM, first compound 1 µM) 65.3% | viability, T/C (second compound 0.316 µM, first compound 3.16 µM) 56.6% | viability, T/C (second compound 0.316 µM, first compound 10 µM) 25.5% | viability, T/C (second compound 1 µM, first compound 0.0316 µM) 102% | viability, T/C (second compound 1 µM, first compound 0.1 µM) 89.7% | viability, T/C (second compound 1 µM, first compound 0.316 µM) 76.3% | viability, T/C (second compound 1 µM, first compound 1 µM) 70% | viability, T/C (second compound 1 µM, first compound 3.16 µM) 58.4% | viability, T/C (second compound 1 µM, first compound 10 µM) 24.7% | viability, T/C (second compound 3.16 µM, first compound 0.0316 µM) 114% | viability, T/C (second compound 3.16 µM, first compound 0.1 µM) 97.8% | viability, T/C (second compound 3.16 µM, first compound 0.316 µM) 69.8% | viability, T/C (second compound 3.16 µM, first compound 1 µM) 72.2% | viability, T/C (second compound 3.16 µM, first compound 3.16 µM) 62.4% | viability, T/C (second compound 3.16 µM, first compound 10 µM) 22.2% | viability, T/C (second compound 10 µM, first compound 0.0316 µM) 114% | viability, T/C (second compound 10 µM, first compound 0.1 µM) 89% | viability, T/C (second compound 10 µM, first compound 0.316 µM) 77.2% | viability, T/C (second compound 10 µM, first compound 1 µM) 68.8% | viability, T/C (second compound 10 µM, first compound 3.16 µM) 64.8% | viability, T/C (second compound 10 µM, first compound 10 µM) 11.3%
3.05 µM: IC50 (second compound 3.16 µM)
3.47 µM: IC50 (second compound 1 µM)

Source: PubChem BioAssay AID2060895 (Molecular Pharmacology Branch, DTP, NCI, 2025)
